Values of other authors, collected in PMC8536644, “Enigmatic mechanism of the N-vinylpyrrolidone hepatocarcinogenicity in the rat” (Archives of Toxicology, 2021).

System: CYP2B
Settings: ref Waxmann [1999]; Lubet et al. [1985]; Tompkins and Wallac [2007]; cited from earlier work

In the case of CCC1(c2ccccc2)C(=O)NC(=O)NC1=O [phenobarbital], the “Increase of hepatic PROD activities” value is given as 50 to 140 fold.
